The subject of one series is THP1-Blue™ NF-κB cells. Nature of the series: Cell viability determination (WST-1), 24 h. It is filed as cell-based. Conditions: WST-1, 24 h incubation, serum-free medium, three independent measurements; read-out: IC50 ± SEM, viability of THP1-Blue™ NF-κB cell line. The protocol:
The cell viability was determined as was described previously. […] The final concentration of DMSO was 0.1% (v/v) in each well. Measurements were taken after 24 h incubation with the tested substances. Viability was measured by the Cell Proliferation Reagent kit WST-1 (Roche Diagnostics, Basel, Switzerland) according to the manufacturer’s manual. […] The IC50 values were calculated by four-parameter logistic (4PL) analysis from obtained viability curves.
A general note: Formazan colour is commonly taken as a measure of viable cells.

The test system of series [1] is transcription factor NF-κB. In words: Determination of LPS-induced NF-κB activity (Quanti-Blue, SEAP reporter). The class given is cell-based. Conditions: for inhibition at 2 µM: concentration of compounds 2 µM; for inhibition at 2 µM / inhibition at 0.5 µM: LPS 1 µg/mL, 24 h; for inhibitory effect on NF-κB activity compared with prednisone (in words): 2 µM, same concentration as prednisone; for inhibition at 0.5 µM: concentration of compounds 0.5 µM. The protocol:
The activity of NF-κB transcription factors was evaluated on THP1-Blue™ NF-κB cells as described previously. […] After 24 h of incubation, 20 µL of cultivation medium was mixed with 200 µL of Quanti-Blue™ medium (Invivogen) and incubated according to the manufacturer’s instructions at 37 °C for 30–40 min. The activity of NF-κB was determined as secretion of embryonic alkaline phosphatase spectrophotometrically in a Tecan Infinite M200 (Tecan, Männedorf Switzerland) at 650 nm and compared with an untreated control (100%).
Figure 3 Effect of the tested compounds on the activity of transcription factor NF-κB. THP1-Blue™ NF-κB cells were pretreated by compounds (2 µM; or 0.5 µM for 10, 11, and 13) or prednisone (PDS; 2 µM) dissolved in DMSO at indicated concentrations for 1 h. Then, lipopolysaccharide (LPS) 1 µg/mL was added to trigger the NF-κB activation. The activity of NF-κB was measured 24 h after LPS stimulation using QuantiBlue™ assay. Graph represents mean ± SEM. Red dotted line show value of DMSO-only treated group, azur dotted line CA treated group, and blue dotted line PDS treated group. ** indicates statistical significance (p < 0.01) to DMSO group; *** indicates statistical significance (p < 0.001) to DMSO group **** indicates statistical significance (p < 0.0001) to DMSO group.

The subject of the next series is MAPKs (p38, ERK1/2, JNK). In words: Signaling pathway analysis (Western blot): phosphorylated MAPKs. The class given is cell-based. Conditions: 2 µM, 30 min after LPS 1 µg/mL. The protocol: (§1) The level of IĸB and the amount of activated (phosphorylated) mitogen-activated protein (MAP) kinase p38, ERK1/2, and JNK was determined on the THP1-Blue™ NF-κB, in a way similar to that described previously. Briefly, cells cultivated in serum-free medium were pretreated with the tested compounds (8, 17, cinnamic acid, or prednisone) at concentration 2 µM. One hour later, 1 µg/mL of LPS was added, and after 30 min the cells were collected into ice-cold Mammalian Cell Lysis Buffer (Abcam, Cambridge, UK) with phosphatase inhibitors PhosSTOP (Roche, Mannheim, Germany). Cell lysates were centrifuged 3000 g/5 min/4 °C and supernatants were mixed with 5× Laemmli reducing buffer [250 mM Tris-HCl pH 6.8, 10% (w/v) SDS, 30% (v/v) glycerol, 5% (v/v) β-mercaptolethanol, 0.04% (w/v) bromphenol blue], and incubated at 95 °C for 5 min. […] The membranes were incubated at 4 °C for 16 h with primary anti-IĸB-α (Cell Signaling; product No. 4814; dilution 1:1,000), anti-p44/42 MAPK (ERK1/2) (Cell Signaling; product No. 9102; dilution 1:1,000), anti-phospho-p44/42 MAPK (ERK1/2) (Cell Signaling; product No. 9101; dilution 1:1,000), anti-JNK1/2/3 (Abcam; product No. ab179461; dilution 1:1,000), anti-phosho-JNK1/2/3 (Abcam; product No. ab76572; dilution 1:5,000), anti-p38 MAPK (Cell Signaling; product No. 8690; dilution 1:1,000), anti-phospho-p38 MAPK (Cell Signaling; product No. 9210; dilution 1:1,000), and anti-β-actin (Santa Cruz, Aachen, Germany; product No. sc-47778; dilution 1:5000) antibodies. […] The amount of bound secondary antibody was determined using WesternSure® PREMIUM Chemiluminescent Substrate (LI-COR, Lincoln, NE, USA). Chemiluminescence was detected using a LI-COR C-DiGit chemiluminescence imaging system (LI-COR).
(§2) Figure 6 Effect of N-arylcinnamamide derivatives on the activation of MAPKs. […] Cells were collected 30 min after LPS stimulation and selected proteins were detected by Western blot and immunodetection.
A general note: A western blot detects proteins with antibodies after separation by electrophoresis.

Another series deals with IκBα. Nature of the series: Signaling pathway analysis (Western blot): IκBα level. The class given is cell-based. The settings on record: 2 µM, 30 min after LPS 1 µg/mL. The protocol: as §1, §2
A further series concerns TNF-α. In words: TNF-α secretion by LPS-stimulated PMA-differentiated THP1-Blue™ NF-κB macrophages (ELISA). It is filed as cell-based, Human. The settings on record: 2 µM, LPS 1 µg/mL, 24 h. The protocol:
Differentiated THP1-Blue™ NF-κB macrophages (see the chapter 3.6) were pre-treated for 1 h with 2 µM solutions of the tested compounds 8, 12, 6, 17, cinnamic acid, and prednisone dissolved in DMSO, or only the vehicle [0.1% (v/v) […] solution]. The inflammatory-like response was triggered by adding 1 μg/mL of LPS from E. coli 0111:B4 (Sigma-Aldrich) to the pre-treated macrophages; the control cells were left without LPS treatment. After 24 h, the supernatants were collected and the concentration of TNF-α was measured using a Human TNF-α ELISA Kit (Diaclone, Besançon, France), according to the manufacturer’s manual.
Figure 7 Effect of N-arylcinnamamide derivatives on the secretion of TNF-α. THP1-Blue™ NF-κB cells were differentiated to macrophages by PMA. Such cells were pretreated by compounds or PDS (2 µM) for 1 h, then LPS (1 µg/mL) was added to trigger the inflammatory signalization. Cultivation medium was collected 24 h after LPS stimulation, and the amount of TNF-α was measured by the ELISA technique. Graph represents mean ± SEM. * indicates statistical significance (p < 0.05) to DMSO group; ** indicates statistical significance (p < 0.01) to DMSO group **** indicates statistical significance (p < 0.0001) to DMSO group.
Background: ELISA stands for enzyme-linked immunosorbent assay.

Details of series [2]: method as in PMID 30087309. The settings on record: cited from earlier work.

By IC50 is commonly meant the point on the concentration scale where inhibition reaches its midpoint. One may read the inhibition as how much of the control response was suppressed.

SMILES strings stand for the structures.

For the compound `O=C(/C=C/c1ccccc1)Nc1cc(Br)ccc1F` [Compound 14], the IC50 in the series on THP1-Blue™ NF-κB cells is greater than 30 µM. In series [1], this compound yielded an inhibition at 2 µM of 19.7%.
As to `O=C(O)/C=C/c1ccccc1` [CA, cinnamic acid, reference compound], the “effect on MAPKs activity” value in the series with MAPKs (p38, ERK1/2, JNK) is reported as “no effect”. Further, the “effect on IκBα levels” value in the series on IκBα was “no effect”. Also, the IC50 in the series with THP1-Blue™ NF-κB cells was greater than 30 µM. Besides, the “effect on TNF-α production (in words)” value in the series on TNF-α is listed as “did not affect”. Also, in series [1], at 2 µM the inhibition was 11.4%.
Regarding `C[C@]12C=CC(=O)C=C1CC[C@@H]1[C@@H]2C(=O)C[C@@]2(C)[C@H]1CC[C@]2(O)C(=O)CO` [PDS, prednisone, reference compound], the “decrease of the level of TNF-α” value in the series on TNF-α worked out at 70.3%.
For the compound `Cc1cccc(NC(=O)/C=C/c2ccccc2)c1` [Compound 2], the 50% inhibitory concentration (IC50) in the series on THP1-Blue™ NF-κB cells is greater than 30 µM. Besides, in series [1], 2 µM produced 9% inhibition.
For the compound `O=C(/C=C/c1ccccc1)Nc1cccc(C(F)(F)F)c1` [Compound 6, (2E)-3-Phenyl-N-[3-(trifluoromethyl)phenyl]prop-2-enamide], in series [2], the log k is 0.4859. The IC50 with THP1-Blue™ NF-κB cells is 11.6 ± 1.13 µM. In the series on TNF-α, the “decrease of the level of TNF-α” value is reported as 10.4%. The inhibition at 2 µM in series [1] was 16.7%.
Regarding `COc1ccc([N+](=O)[O-])cc1NC(=O)/C=C/c1ccccc1` [Compound 18, (2E)-N-(2-methoxy-5-nitrophenyl)-3-phenylprop-2-enamide], the half-inhibitory concentration (IC50) with THP1-Blue™ NF-κB cells is greater than 30 µM. This compound displayed an inhibition at 2 µM in series [1] of 17.6%.
On to `O=C(/C=C/c1ccccc1)Nc1c(Br)cccc1Br` [Compound 12, (2E)-N-(2,6-dibromophenyl)-3-phenylprop-2-enamide], for which, in the series with THP1-Blue™ NF-κB cells, the IC50 is greater than 30 µM. In addition, in the series with TNF-α, the “decrease of the level of TNF-α” value is recorded as 10% and the “effect on TNF-α production (in words)” value is listed as “decreased”. For the same compound, in series [1], the “inhibitory effect on NF-κB activity compared with prednisone (in words)” value was “comparable with prednisone” and the inhibition at 2 µM stood at 23.1%.
With `O=C(/C=C/c1ccccc1)Nc1c(Cl)cccc1Cl` [Compound 9], the IC50 in the series with THP1-Blue™ NF-κB cells is greater than 30 µM. In series [1], this compound came in with an inhibition at 2 µM of 14.1%.
Consider `O=C(/C=C/c1ccccc1)Nc1cc(Cl)cc(Cl)c1` [Compound 11], for which the log k in series [2] was 0.8155. Also, the IC50 in the series on THP1-Blue™ NF-κB cells was 2.43 ± 1.06 µM. The same compound showed an inhibition at 0.5 µM in series [1] of 16.2%.
As for `Cc1ccc(C)c(NC(=O)/C=C/c2ccccc2)c1` [Compound 7], the IC50 with THP1-Blue™ NF-κB cells was greater than 30 µM. The compound further came in with an inhibition at 2 µM in series [1] of 14.8%.
As to `O=C(/C=C/c1ccccc1)Nc1cc(C(F)(F)F)cc(C(F)(F)F)c1` [Compound 13], the log k in series [2] was 0.9814. In addition, in the series on THP1-Blue™ NF-κB cells, the IC50 came out at 2.17 ± 1.19 µM. The compound further gave an inhibition at 0.5 µM in series [1] of 19.7%.
Consider `O=C(/C=C/c1ccccc1)Nc1cc(F)ccc1Br` [Compound 15, (2E)-N-(2-bromo-5-fluorophenyl)-3-phenylprop-2-enamide], for which, in the series with THP1-Blue™ NF-κB cells, the IC50 was greater than 30 µM. The inhibition at 2 µM in series [1] was determined as 17.8%.
For `O=C(/C=C/c1ccccc1)Nc1ccc(Cl)c(Cl)c1` [Compound 10], in series [2], the log k is 0.6821. The IC50 in the series with THP1-Blue™ NF-κB cells was 6.28 ± 2.32 µM. The compound also yielded an inhibition at 0.5 µM in series [1] of 10.9%.
On to `O=C(/C=C/c1ccccc1)Nc1ccc(Br)cc1Cl` [Compound 16, (2E)-N-(4-bromo-2-chlorophenyl)-3-phenylprop-2-enamide], for which, in the series on THP1-Blue™ NF-κB cells, the IC50 is greater than 30 µM. The inhibition at 2 µM in series [1] came to 13.7%.
With `O=C(/C=C/c1ccccc1)Nc1cc(Cl)ccc1Cl` [Compound 8, (2E)-N-(2,5-dichlorophenyl)-3-phenylprop-2-enamide], in the series with MAPKs (p38, ERK1/2, JNK), the “effect on MAPKs activity” value is “no effect”. Further, the “effect on IκBα levels” value in the series on IκBα is “no effect”. The IC50 in the series on THP1-Blue™ NF-κB cells was greater than 30 µM. Besides, in series [1], the “inhibitory effect on NF-κB activity compared with prednisone (in words)” value is “comparable with prednisone” and the inhibition at 2 µM was 22.5%.
Turning to `Cc1ccc(NC(=O)/C=C/c2ccccc2)cc1` [Compound 3], in the series with THP1-Blue™ NF-κB cells, the IC50 is greater than 30 µM. The compound further gave an inhibition at 2 µM in series [1] of 8.5%.
